ChEMBL document CHEMBL1127116, “Synthesis and structure-activity relationships of a novel series of non-peptide AT2-selective angiotensin II receptor antagonists” (Bioorg Med Chem Lett, 1993)

Tests used:
[1] = Half life in rats; type: ADME, organism-based; details: rat, in vivo
[2] = Oral bioavailability in rat; type: ADME, organism-based; details: in vivo
[3] = biological target: T1, Type-1 angiotensin II receptor (Oryctolagus cuniculus, UniProt P34976); test: Inhibition of Angiotensin II receptor, type 1 in rabbit aorta using [125I-Sar1,Ile8] angiotensin II binding assay; type: tissue-based
T1 sequence (P34976 whole entry): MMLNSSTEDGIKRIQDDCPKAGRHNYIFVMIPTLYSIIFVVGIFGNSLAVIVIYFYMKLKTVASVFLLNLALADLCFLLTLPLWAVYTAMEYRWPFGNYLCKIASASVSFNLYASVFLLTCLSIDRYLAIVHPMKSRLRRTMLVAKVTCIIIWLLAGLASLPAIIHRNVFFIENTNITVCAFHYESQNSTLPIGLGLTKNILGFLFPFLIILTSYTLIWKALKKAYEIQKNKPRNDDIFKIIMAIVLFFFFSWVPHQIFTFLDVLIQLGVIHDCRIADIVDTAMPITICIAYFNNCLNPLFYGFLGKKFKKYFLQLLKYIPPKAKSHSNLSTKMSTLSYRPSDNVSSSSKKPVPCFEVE

[4] = biological target: T2, Type-2 angiotensin II receptor (Rattus norvegicus, UniProt P35351); test: Inhibition of Angiotensin II receptor, type 2 in rat midbrain using [125I]-Sar1,Ile8 angiotensin II binding assay
T2 sequence (P35351 whole entry): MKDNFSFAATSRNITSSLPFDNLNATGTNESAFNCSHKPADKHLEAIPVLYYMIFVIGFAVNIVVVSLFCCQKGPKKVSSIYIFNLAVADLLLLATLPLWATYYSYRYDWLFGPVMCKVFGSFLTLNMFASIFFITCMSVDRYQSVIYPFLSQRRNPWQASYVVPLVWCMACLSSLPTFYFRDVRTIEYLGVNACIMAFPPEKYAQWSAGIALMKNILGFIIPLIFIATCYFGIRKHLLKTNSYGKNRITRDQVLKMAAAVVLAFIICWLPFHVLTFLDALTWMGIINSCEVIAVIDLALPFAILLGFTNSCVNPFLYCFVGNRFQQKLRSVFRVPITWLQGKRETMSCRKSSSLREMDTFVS

[5] = biological target: T1, Type-1 angiotensin II receptor; test: Inhibition of angiotensin Angiotensin II receptor, type 1 in rabbit aorta using [125I-Sar1,Ile8] angiotensin II binding assay; type: tissue-based
[6] = biological target: T2, Type-2 angiotensin II receptor; test: Compound was evaluated for inhibition of Angiotensin II receptor, type 2 in rat midbrain AT2 assay; type: tissue-based

Row | SMILES | IC50 [3] [nM] | IC50 [4] [nM] | IC50 [5] [nM] | other results
1 | CCCCCN(CCCCC)C(=O)N1CCN(C(=O)N(c2ccccc2)c2ccc(Br)cc2)[C@H](C(=O)O)C1 |  | 2.7 | 5400 | 
2 | COc1ccc(Cn2cnc3c2C[C@@H](C(=O)O)N(C(=O)C(c2ccccc2)c2ccccc2)C3)cc1C |  |  |  | IC50 [6]: 38 nM
3 | CCCCCN(CCCCC)C(=O)N1CCN(C(=O)N(c2ccccc2)c2ccccc2)[C@H](C(=O)O)C1 |  | 1.4 | 39000 | 
4 | CCCCCN(CCCCC)C(=O)N1CCN(C(=O)N(c2ccccc2)c2ccc(C(=O)OCC)cc2)[C@H](C(=O)O)C1 |  | 35 | > 10000 | 
5 | CCCCCN(CCCCC)C(=O)N1CCN(C(=O)N(c2ccccc2)c2cccc(Br)c2)[C@H](C(=O)O)C1 |  | 0.6 | 59000 | 
6 | CCCCCN(CCCCC)C(=O)N1CCN(C(=O)N(c2ccccc2)c2cccc(Cl)c2)[C@H](C(=O)O)C1 |  | 0.4 | 5100 | 
7 | CCCCCN(CCCCC)C(=O)N1CCN(C(=O)C(c2ccccc2)c2ccccc2)C(C(=O)O)C1 (stereo unspecified) | > 100000 | 1.1 |  | 
8 | CCCCCN(CCCCC)C(=O)N1CCN(C(=O)N(c2ccccc2)c2ccccc2)C[C@H]1C(=O)O | 25000 | 23 |  | 
9 | CCCCCN(CCCCC)C(=O)N1CCN(C(=O)N(c2ccccc2)c2ccccc2)[C@H](CO)C1 | > 10000 | 30 |  | 
10 | CCCCCN(CCCCC)C(=O)N1CCN(C(=O)N(c2ccccc2)c2ccccc2)[C@H](C(=O)OC)C1 | 21000 | 12 |  | 
11 | CCCCCN(CCCCC)C(=O)N1CCN(C(=O)N(c2ccccc2)c2ccccc2)[C@@H](C(=O)O)C1 | > 10000 | 4.5 |  | 
12 | CCCCCN(CCCCC)C(=O)N1CCN(C(=O)N(c2ccccc2)c2ccccc2)CC1 |  | 70 | 12500 | 
13 | CCCCCN(CCCCC)C(=O)N1CCN(C(=O)N(c2ccccc2)c2ccc(I)cc2)[C@H](C(=O)O)C1 |  | 7 | 8500 | 
14 | CCCCCN(CCCCC)C(=O)N1CCN(C(=O)N(c2ccccc2)c2ccccc2)C(C(=O)O)C1 (stereo unspecified) | > 30000 | 1.7 |  | 
15 | CCCCCN(C(=O)N1CCN(C(=O)N(c2ccccc2)c2ccccc2)C[C@H]1C(=O)O)c1ccccc1 | 45000 | 20 |  | 
16 | CCCCCN(CCCCC)C(=O)N1CCN(C(=O)N(c2ccccc2)c2ccc(O)cc2)[C@H](C(=O)O)C1 |  | 230 | 10000 | 
17 | CCCCCN(CCCCC)C(=O)N1CCN(C(=O)N(c2ccccc2)c2cccc(C)c2)[C@H](C(=O)O)C1 |  | 0.7 | 10000 | 
18 | CCCCCN(C)C(=O)N1CCN(C(=O)N(c2ccccc2)c2ccccc2)[C@H](C(=O)O)C1 | > 30000 | 15 |  | 
19 | CCCCCN(CCCCC)C(=O)N1CCN(C(=O)N(c2ccccc2)c2ccccc2)[C@H](CCO)C1 |  | 15 | > 10000 | 
20 | CN(C(=O)N1CCN(C(=O)N(c2ccccc2)c2ccccc2)[C@H](C(=O)O)C1)c1ccccc1 | > 10000 | 170 |  | 

More lines, main results first:

Row | IC50 [3] [nM] | IC50 [4] [nM] | IC50 [5] [nM] | SMILES | other results
21 | > 100000 |  |  | O=C(O)[C@@H]1CN(C(=O)N(c2ccccc2)c2ccccc2)CCN1C(=O)N(c1ccccc1)c1ccccc1 | half-life [1]: > 6 h; bioavailability [2]: 21%
22 |  | 37 | > 100000 | O=C(N1CCN(C(=O)N(c2ccccc2)c2ccccc2)CC1)N(c1ccccc1)c1ccccc1 | 
23 | > 10000 | 40 |  | CC(C)N(C(=O)N1CCN(C(=O)N(c2ccccc2)c2ccccc2)[C@H](C(=O)O)C1)C(C)C | 
24 | > 30000 | 82 |  | CCCCCN(CCCCC)C(=O)N1CCN(C(=O)N(CCCCC)CCCCC)[C@H](C(=O)O)C1 | 
25 |  | 15 | > 100000 | CC1CN(C(=O)N(c2ccccc2)c2ccccc2)CCN1C(=O)N(c1ccccc1)c1ccccc1 (stereo unspecified) | 
26 |  | 7.8 | > 10000 | CCCCCN(CCCCC)C(=O)N1CCN(C(=O)N(c2ccccc2)c2cccc(OC)c2)[C@H](C(=O)O)C1 | 
27 |  | 10 | > 100000 | CC1CN(C(=O)N(c2ccccc2)c2ccccc2)C(C)CN1C(=O)N(c1ccccc1)c1ccccc1 (stereo unspecified) | 
28 |  | 180 | 1400 | CCCCCN(CCCCC)C(=O)N1CCN(C(=O)N(c2ccccc2)c2ccc(C(=O)O)cc2)[C@H](C(=O)O)C1 | 
